Activity, CI and inhibition data for 1 molecule are collected here from ChEMBL document CHEMBL5338753, “Stapled Peptides as Direct Inhibitors of Nrf2-sMAF Transcription Factors” (J Med Chem, 2023).

Series [1] deals with A549. Put plainly: Downregulation of HMOX1 mRNA level in human A549 cells at 50 uM incubated for 72 hrs by qPCR assay. The series is classed as functional, cell-based. Background: Quantitative PCR measures a nucleic acid by following its amplification.
Series [2] concerns A549. Description: Synergistic antiproliferative activity against human A549 cells assessed as cell death at 12.5 uM incubated for 72 hrs in presence of 6 uM cisplatin by MTT assay (reference value: 46%). Type of series: functional. On the technique in general: Tetrazolium dyes change colour on reduction, which living cells bring about.
Series [3] deals with A549. Put plainly: Synergistic antiproliferative activity against human A549 cells assessed as cell death at 3.125 uM incubated for 72 hrs in presence of 6 uM cisplatin by MTT assay (reference value: 46%). The series is classed as functional.
For a further series, the system named is HEK-293T. Put plainly: Cytotoxicity against HEK-293T cells assessed as reduction in cell viability. The series is classed as toxicity, cell-based. Conditions: human.
Series [4] has as its system A549. Description: Downregulation of NQO2 mRNA level in human A549 cells at 50 uM incubated for 72 hrs by qPCR assay. Type of series: functional, cell-based.
For series [5], the system named is A549. Description: Synergistic antiproliferative activity against human A549 cells assessed as cell death at 25 uM incubated for 72 hrs in presence of 6 uM cisplatin by MTT assay (reference value: 46%). The series is classed as functional.
Series [6] deals with A549. Put plainly: Synergistic antiproliferative activity against human A549 cells assessed as combination index at 3.125 uM incubated for 72 hrs in presence of 6 uM cisplatin by Chou-Talalay method. Type of series: functional.
In series [7] the target is T1, Nuclear factor erythroid 2-related factor 2 (Homo sapiens) (UniProt Q16236).
T1 sequence (whole entry): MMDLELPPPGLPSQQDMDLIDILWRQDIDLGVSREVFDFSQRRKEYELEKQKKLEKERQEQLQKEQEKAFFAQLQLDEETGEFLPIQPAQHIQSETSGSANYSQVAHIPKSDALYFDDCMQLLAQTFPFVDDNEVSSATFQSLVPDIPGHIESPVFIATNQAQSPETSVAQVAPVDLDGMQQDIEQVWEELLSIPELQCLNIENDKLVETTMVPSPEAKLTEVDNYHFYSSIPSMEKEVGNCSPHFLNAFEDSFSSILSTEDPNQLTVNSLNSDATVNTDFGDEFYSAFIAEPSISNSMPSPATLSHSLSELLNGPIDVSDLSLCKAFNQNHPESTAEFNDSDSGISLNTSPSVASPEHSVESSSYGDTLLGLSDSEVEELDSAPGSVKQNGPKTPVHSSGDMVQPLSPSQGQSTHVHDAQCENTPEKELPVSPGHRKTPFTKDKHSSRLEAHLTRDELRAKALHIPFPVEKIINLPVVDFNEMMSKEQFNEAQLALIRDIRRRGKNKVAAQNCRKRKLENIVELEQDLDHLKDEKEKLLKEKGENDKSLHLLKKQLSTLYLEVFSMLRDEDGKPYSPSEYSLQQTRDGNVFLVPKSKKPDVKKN
Description: Inhibition of human Nrf2 in HEK-293T cells expressing ARE-firefly luciferase and TK-Renilla luciferase at 50 to 100 uM incubated for 16 hrs by Dual-Luciferase reporter based luminometer analysis. The series is classed as cell-based. Particulars: dose 50-100 µM. In general terms: Reporter assays use an easily measured gene product as a stand-in for the process of interest.

Series [8] deals with A549. Description: Synergistic antiproliferative activity against human A549 cells assessed as cell death at 3.125 uM incubated for 72 hrs in presence of 12 uM cisplatin by MTT assay (reference value: 66%). The series is classed as functional.
Series [9] deals with T1, Nuclear factor erythroid 2-related factor 2 (Homo sapiens). Description: Inhibition of Nrf2 transcriptional activity in human A549 cells assessed as reduction in glutathione level at 50 to 100 uM incubated for 24 hrs by GSH-Glo glutathione assay. The series is classed as cell-based. Conditions: dose 50-100 µM.
The subject of series [10] is A549. Put plainly: Synergistic antiproliferative activity against human A549 cells assessed as reduction in cell growth at 50 uM incubated for 3 days in presence of 6 uM cisplatin and measured every 2 hrs by IncuCyte live-cell imaging assay. Type of series: functional, cell-based. Conditions: time 3.0 day.

Calls of active or inactive are those of the source. No cut-off for these calls is given here. Positions of bridges follow the written chain, without caps; N, C: chain ends. Non-standard residues stand in square brackets, D forms with d. Residues, ends and D or L forms follow the SMILES beside them. R5 = C=CCCC[C@@](C)(N)C(=O)O

Consider `CC[C@H](C)[C@H](NC(C)=O)C(=O)N[C@H](C(=O)N[C@@H](CCC(=O)O)C(=O)N[C@@H](CC(C)C)C(=O)N[C@@H](CCC(=O)O)C(=O)N[C@]1(C)CCC/C=C\CCC[C@](C)(C(=O)N[C@@H](CC(C)C)C(=O)N[C@@H](CCCCN)C(=O)N[C@@H](CC(=O)O)C(=O)N[C@@H](CCC(=O)O)C(=O)N[C@@H](CCCCN)C(=O)N[C@@H](CCC(=O)O)C(N)=O)NC(=O)[C@H](CC(=O)O)NC(=O)[C@H](CC(C)C)NC(=O)[C@H](CC(=O)O)NC1=O)C(C)C` (Ac-IVELE[R5]DLD[R5]LKDEKE-NH2; staple (Z) 6-10), for which the result with A549 [1], in the series with A549 [4] and in the series with A549 [10] was Active. Besides, the Activity with A549 [2] is on record as 64%; in the series with A549 [3] it was 52%; in the series with HEK-293T, “Non-Toxic”; in the series on A549 [5], 68%; with A549 [8], 71%. Also, the CI in the series on A549 [6] is 0.84. Also, the inhibition entry in series [7] and in [9] was “Active” each time.
